Laboratory results taken from article PMC3328449, “Inhibition of Diacylglycerol–Sensitive TRPC Channels by Synthetic and Natural Steroids” (PLoS ONE, 2012).
Values joined by “and” are separate entries in the source; they are usually repeats but may differ in a detail not shown here. Equal entries are not always repeated.

Target: T1, hTRPC3 (Homo sapiens, UniProt Q13507)
T1 construct: expressed in transfected cells
T1 sequence (Q13507 1-848 isoform Q13507-3): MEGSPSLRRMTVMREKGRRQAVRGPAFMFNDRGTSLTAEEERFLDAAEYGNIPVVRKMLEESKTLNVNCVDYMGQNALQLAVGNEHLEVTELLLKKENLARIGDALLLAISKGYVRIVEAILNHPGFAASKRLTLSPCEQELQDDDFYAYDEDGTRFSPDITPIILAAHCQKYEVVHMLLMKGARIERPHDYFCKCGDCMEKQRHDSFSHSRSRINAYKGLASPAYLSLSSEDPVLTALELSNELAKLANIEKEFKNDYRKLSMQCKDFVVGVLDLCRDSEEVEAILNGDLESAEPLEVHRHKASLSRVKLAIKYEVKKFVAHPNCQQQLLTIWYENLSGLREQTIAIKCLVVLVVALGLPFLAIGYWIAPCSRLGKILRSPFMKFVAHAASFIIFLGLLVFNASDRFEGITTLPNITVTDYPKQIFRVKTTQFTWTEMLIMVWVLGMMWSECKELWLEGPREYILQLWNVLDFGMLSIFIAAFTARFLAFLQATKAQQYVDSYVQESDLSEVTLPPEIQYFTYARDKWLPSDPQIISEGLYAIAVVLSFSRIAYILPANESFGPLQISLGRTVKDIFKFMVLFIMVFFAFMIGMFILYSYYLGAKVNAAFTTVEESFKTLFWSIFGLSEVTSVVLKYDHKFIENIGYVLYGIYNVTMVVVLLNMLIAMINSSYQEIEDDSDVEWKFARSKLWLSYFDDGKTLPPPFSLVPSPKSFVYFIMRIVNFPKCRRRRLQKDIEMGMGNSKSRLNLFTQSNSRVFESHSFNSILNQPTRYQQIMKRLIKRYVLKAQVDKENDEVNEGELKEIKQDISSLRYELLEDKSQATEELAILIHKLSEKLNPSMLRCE
Test: OAG-induced Ca2+ entry, fluo-4 fluorometric imaging plate reader, TRPC3 CHO cells
Format: cell-based
Details: for IC50: TRPC3 CHO cells, fluo-4, area under the curve, 10 min pre-incubation, read-out: IC50, inhibition of OAG-induced Ca2+ entry via TRPC3; for Hill slope n, inhibition of TRPC3-mediated Ca2+ entry: fit to Hill model
Description: hTRPC3 (GenBank accession number NM_003305) was stably expressed in chinese hamster ovary (CHO) cells using a proprietary high expression vector (Steinbeis -Transferzentrum für Angewandte Biologische Chemie, Mannheim, Germany). Cells grown to an almost confluent monolayer on black poly-D-lysine coated 96-well plates (Greiner, Frickenhausen, Germany) were washed with standard extracellular solution (140 mM NaCl, 1 mM MgCl2, 5.4 mM KCl, 2 mM CaCl2, 10 mM HEPES, 10 mM glucose, pH 7.35) and stained (30 min, room temperature) with dye solution (2 μM fluo-4 AM, 0.02% pluronic F127, 0.1% bovine serum albumin in standard extracellular solution). Cells were washed and either incubated with standard extracellular solution only or with different concentrations of test compounds for 10 min. Fluo-4 fluorescence was excited at 488 nm with an argon laser and measured using a fluorometric imaging plate reader (Molecular Devices, Sunnyvale, USA). All fluorometric measurements were performed at room temperature. […] Baseline fluorescence in non-OAG-stimulated cells and OAG-stimulated Ca^2+ influx into control cells not treated with inhibitors were defined as 0% and 100% influx, respectively. For statistical analysis, analysis of variance was performed with Origin 6.0 software (Microcal Software Inc., Northampton, USA). […] Averaged data is expressed as means ± SEM.

Effect on TRPC3-mediated Ca2+ entry (30 µM pre-incubation, OAG-induced)	IC50	Hill slope n, inhibition of TRPC3-mediated Ca2+ entry	SMILES
significantly reduced	3 to 5 µM and 3 µM	1.67	C#C[C@]1(OC(C)=O)CC[C@H]2[C@@H]3CCC4=CC(=NO)CC[C@@H]4[C@H]3CC[C@@]21CC (mixture of isomers) [norgestimate]
–	12.4 µM	3.6	CC(=O)[C@H]1CC[C@H]2[C@@H]3CCC4=CC(=O)CC[C@]4(C)[C@H]3CC[C@]12C [progesterone]
